In patent US12522583B2, “Benzimidazole derivatives and aza-benzimidazole derivatives as Janus kinase 2 inhibitors and uses thereof” (Dana-Farber Cancer Institute, Inc., priority 2018, dated 2026):

How the values were obtained:
Experiment in all cases: KINOMEscan
Assay type in all cases: binding
Conditions in all cases: read-out: percent control
[1] = target: ABL1(H396P)-phosphorylated (Homo sapiens (Human), UniProt P00519, H396P)
Text: (§1) Example 2. In Vitro Kinase Selectivity Profiling of the Compounds of the Present Disclosure

ABL2 = ABL2 (Homo sapiens (Human), UniProt P42684)
Text: as §1

AMPK-alpha1 = AMPK-alpha1 (Homo sapiens (Human), UniProt Q13131)
Text: as §1

AMPK-alpha2 = AMPK-alpha2 (Homo sapiens (Human), UniProt P54646)
Text: as §1

ANKK1 = ANKK1 (Homo sapiens (Human), UniProt Q8NFD2)
Text: as §1

ASK2 = ASK2 (Homo sapiens (Human), UniProt O95382)
Text: as §1

BTK = BTK (Homo sapiens (Human), UniProt Q06187)
Text: as §1

CAMK1D = CAMK1D (Homo sapiens (Human), UniProt Q8IU85)
CAMK1D, sequence (Q8IU85 whole entry): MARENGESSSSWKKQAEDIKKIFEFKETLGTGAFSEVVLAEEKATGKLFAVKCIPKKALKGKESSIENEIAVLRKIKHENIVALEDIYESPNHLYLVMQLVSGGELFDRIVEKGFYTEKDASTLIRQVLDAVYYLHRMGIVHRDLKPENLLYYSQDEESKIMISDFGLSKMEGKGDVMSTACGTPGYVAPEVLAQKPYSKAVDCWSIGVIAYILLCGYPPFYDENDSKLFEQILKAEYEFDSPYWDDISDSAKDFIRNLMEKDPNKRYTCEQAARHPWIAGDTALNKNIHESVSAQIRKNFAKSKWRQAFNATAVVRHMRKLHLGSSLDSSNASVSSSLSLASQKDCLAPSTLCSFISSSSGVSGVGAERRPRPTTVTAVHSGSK
Text: as §1

CDK4 = CDK4 (Homo sapiens (Human), UniProt P11802)
Text: as §1

CTK = CTK (Homo sapiens (Human), UniProt P42679)
Text: as §1

DCAMKL2 = DCAMKL2 (Homo sapiens (Human), UniProt Q8N568)
Text: as §1

EGFR(G719S) = EGFR(G719S) (Homo sapiens (Human), UniProt P00533, G719S)
Text: as §1

[2] = target: EGFR(L747-E749del, A750P) (Homo sapiens (Human), UniProt P00533, A750P/DEL747-749)
Text: as §1

EGFR(T790M) = EGFR(T790M) (Homo sapiens (Human), UniProt P00533, T790M)
Text: as §1

EPHA2 = EPHA2 (Homo sapiens (Human), UniProt P29317)
Text: as §1

EPHA5 = EPHA5 (Homo sapiens (Human), UniProt P54756)
Text: as §1

EPHA7 = EPHA7 (Homo sapiens (Human), UniProt Q15375)
Text: as §1

ERN1 = ERN1 (Homo sapiens (Human), UniProt O75460)
Text: as §1

FGFR3 = FGFR3 (Homo sapiens (Human), UniProt P22607)
Text: as §1

FLT1 = FLT1 (Homo sapiens (Human), UniProt P17948)
Text: as §1

HIPK2 = HIPK2 (Homo sapiens (Human), UniProt Q9H2X6)
Text: as §1

[3] = target: JAK3(JH1domain-catalytic) (Homo sapiens (Human), UniProt P52333)
JAK3(JH1domain-catalytic), sequence (P52333 822-1111 limits assumed): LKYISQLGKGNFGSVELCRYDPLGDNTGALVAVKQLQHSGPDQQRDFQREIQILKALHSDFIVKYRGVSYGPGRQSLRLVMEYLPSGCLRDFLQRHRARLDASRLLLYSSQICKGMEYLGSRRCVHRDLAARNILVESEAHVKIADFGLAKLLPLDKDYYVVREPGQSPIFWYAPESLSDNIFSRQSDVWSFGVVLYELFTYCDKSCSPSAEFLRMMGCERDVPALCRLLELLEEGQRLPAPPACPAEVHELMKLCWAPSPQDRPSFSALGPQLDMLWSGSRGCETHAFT
Text: as §1

KIT(A829P) = KIT(A829P) (Homo sapiens (Human), UniProt P10721, A829P)
Text: as §1

MAP3K15 = MAP3K15 (Homo sapiens (Human), UniProt Q6ZN16)
Text: as §1

MAP3K4 = MAP3K4 (Homo sapiens (Human), UniProt Q9Y6R4)
MAP3K4, sequence (Q9Y6R4 whole entry): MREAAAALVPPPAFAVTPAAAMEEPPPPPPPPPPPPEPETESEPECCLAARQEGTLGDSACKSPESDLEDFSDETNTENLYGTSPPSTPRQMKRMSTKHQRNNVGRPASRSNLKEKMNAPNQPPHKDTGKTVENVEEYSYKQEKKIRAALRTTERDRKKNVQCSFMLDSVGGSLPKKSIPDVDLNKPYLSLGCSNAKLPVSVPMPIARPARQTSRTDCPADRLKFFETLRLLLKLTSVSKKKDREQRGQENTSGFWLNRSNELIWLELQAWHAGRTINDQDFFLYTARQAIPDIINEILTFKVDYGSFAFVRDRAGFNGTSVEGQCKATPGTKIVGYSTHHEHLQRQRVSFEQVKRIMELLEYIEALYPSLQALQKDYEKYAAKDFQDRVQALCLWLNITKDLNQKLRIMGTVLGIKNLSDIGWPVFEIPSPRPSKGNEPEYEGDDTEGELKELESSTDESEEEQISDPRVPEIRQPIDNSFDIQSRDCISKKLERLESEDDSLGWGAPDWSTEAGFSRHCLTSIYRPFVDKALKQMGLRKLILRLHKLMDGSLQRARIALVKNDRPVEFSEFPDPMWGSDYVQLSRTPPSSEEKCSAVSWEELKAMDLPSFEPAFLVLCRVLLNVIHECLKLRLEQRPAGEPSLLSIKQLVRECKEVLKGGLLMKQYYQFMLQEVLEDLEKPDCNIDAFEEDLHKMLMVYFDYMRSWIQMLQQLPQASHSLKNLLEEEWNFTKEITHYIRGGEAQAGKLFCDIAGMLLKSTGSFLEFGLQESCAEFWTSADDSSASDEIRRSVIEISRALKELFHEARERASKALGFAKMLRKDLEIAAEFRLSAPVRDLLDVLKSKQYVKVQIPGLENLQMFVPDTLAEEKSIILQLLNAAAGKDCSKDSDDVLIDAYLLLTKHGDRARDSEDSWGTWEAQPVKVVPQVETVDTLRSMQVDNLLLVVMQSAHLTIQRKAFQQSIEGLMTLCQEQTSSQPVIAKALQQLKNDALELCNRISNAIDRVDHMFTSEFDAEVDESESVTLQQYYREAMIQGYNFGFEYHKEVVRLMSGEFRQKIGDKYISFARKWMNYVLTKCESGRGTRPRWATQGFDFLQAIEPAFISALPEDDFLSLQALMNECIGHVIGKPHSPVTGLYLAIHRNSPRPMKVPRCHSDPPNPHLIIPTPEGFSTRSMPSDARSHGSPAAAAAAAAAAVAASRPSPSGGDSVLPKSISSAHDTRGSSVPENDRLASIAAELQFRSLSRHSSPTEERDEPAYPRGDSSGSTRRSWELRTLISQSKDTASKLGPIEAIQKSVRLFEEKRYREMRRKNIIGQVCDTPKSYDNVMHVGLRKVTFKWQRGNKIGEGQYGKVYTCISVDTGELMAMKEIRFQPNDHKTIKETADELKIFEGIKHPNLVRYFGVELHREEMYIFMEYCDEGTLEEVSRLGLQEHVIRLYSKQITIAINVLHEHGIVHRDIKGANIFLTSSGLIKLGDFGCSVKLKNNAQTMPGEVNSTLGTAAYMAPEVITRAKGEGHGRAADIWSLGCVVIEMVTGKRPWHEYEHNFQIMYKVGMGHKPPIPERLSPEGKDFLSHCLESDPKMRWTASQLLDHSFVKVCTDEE
Text: as §1

MAP4K4 = MAP4K4 (Homo sapiens (Human), UniProt O95819)
Text: as §1

MEK3 = MEK3 (Homo sapiens (Human), UniProt P46734)
MEK3, sequence (P46734 whole entry): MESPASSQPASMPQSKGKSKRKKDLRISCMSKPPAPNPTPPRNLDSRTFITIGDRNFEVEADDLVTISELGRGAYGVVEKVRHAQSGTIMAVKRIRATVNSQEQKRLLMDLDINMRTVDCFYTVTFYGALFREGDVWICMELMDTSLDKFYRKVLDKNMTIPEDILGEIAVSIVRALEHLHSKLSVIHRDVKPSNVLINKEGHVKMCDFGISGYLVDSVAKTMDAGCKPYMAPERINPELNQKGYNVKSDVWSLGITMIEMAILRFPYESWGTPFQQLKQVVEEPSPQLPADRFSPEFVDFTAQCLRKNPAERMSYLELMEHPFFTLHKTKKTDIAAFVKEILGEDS
Text: as §1

MLK2 = MLK2 (Homo sapiens (Human), UniProt Q02779)
MLK2, sequence (Q02779 whole entry): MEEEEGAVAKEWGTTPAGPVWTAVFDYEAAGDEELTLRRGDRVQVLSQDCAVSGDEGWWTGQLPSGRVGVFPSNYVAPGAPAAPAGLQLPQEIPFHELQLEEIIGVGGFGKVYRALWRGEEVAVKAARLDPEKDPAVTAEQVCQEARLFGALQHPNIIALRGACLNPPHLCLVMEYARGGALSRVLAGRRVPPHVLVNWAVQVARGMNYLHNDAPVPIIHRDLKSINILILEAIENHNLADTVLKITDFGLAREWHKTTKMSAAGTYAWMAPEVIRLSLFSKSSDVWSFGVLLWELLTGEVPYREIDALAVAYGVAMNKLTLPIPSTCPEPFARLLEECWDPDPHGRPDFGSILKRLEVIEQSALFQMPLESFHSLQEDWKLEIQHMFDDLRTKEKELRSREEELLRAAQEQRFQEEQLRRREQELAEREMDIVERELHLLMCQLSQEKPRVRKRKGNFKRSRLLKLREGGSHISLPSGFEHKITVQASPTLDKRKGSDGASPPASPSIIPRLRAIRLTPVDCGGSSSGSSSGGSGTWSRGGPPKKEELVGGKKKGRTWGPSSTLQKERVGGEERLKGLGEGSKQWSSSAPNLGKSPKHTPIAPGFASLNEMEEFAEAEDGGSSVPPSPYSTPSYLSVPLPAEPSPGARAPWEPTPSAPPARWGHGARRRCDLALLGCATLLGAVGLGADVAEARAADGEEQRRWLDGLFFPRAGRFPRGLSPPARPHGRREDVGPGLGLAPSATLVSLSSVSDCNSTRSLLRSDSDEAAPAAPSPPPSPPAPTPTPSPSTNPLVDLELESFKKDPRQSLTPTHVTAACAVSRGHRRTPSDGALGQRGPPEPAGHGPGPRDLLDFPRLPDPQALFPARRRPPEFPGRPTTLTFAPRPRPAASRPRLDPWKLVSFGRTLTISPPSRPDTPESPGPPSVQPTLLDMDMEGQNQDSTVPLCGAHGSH
Text: as §1

PCTK1 = PCTK1 (Homo sapiens (Human), UniProt Q00536)
Text: as §1

PDGFRA = PDGFRA (Homo sapiens (Human), UniProt P16234)
Text: as §1

PDGFRB = PDGFRB (Homo sapiens (Human), UniProt P09619)
Text: as §1

PFTK1 = PFTK1 (Homo sapiens (Human), UniProt O94921)
Text: as §1

PKN2 = PKN2 (Homo sapiens (Human), UniProt Q16513)
Text: as §1

PLK3 = PLK3 (Homo sapiens (Human), UniProt Q9H4B4)
Text: as §1

RIOK3 = RIOK3 (Homo sapiens (Human), UniProt O14730)
RIOK3, sequence (O14730 whole entry): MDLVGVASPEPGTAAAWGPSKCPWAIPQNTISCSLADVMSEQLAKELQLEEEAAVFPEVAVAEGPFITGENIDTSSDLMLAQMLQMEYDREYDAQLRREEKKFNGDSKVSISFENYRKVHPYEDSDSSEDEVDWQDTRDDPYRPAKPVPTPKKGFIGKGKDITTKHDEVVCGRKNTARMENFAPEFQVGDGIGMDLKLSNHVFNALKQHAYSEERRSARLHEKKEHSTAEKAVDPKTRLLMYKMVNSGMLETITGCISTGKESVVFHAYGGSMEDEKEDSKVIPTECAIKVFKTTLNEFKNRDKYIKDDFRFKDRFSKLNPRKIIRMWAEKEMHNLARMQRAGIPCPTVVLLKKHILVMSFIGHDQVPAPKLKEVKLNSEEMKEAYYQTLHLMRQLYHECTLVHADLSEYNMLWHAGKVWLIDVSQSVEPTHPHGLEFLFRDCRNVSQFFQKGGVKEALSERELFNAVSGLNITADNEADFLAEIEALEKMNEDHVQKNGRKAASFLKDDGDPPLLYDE
Text: as §1

RIPK1 = RIPK1 (Homo sapiens (Human), UniProt Q13546)
RIPK1, sequence (Q13546 whole entry): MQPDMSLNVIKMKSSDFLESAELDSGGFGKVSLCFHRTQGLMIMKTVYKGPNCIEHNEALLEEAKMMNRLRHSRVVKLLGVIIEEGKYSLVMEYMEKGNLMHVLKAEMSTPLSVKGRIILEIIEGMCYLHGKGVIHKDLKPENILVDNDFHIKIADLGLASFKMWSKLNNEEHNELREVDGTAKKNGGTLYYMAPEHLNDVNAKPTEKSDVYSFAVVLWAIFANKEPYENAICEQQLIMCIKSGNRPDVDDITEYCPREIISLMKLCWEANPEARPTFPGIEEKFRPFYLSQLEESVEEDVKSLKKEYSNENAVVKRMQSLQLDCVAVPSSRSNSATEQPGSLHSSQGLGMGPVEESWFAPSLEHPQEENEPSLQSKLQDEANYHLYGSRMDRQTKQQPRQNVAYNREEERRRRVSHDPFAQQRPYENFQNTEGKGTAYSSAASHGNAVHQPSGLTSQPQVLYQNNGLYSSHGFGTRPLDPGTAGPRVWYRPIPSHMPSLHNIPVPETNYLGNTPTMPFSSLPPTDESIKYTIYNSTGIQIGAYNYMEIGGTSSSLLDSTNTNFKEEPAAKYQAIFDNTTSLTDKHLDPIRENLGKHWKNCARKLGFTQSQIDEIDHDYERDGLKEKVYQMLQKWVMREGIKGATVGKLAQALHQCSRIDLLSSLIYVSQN
Text: as §1

ROS1 = ROS1 (Homo sapiens (Human), UniProt P08922)
Text: as §1

SIK2 = SIK2 (Homo sapiens (Human), UniProt Q9H0K1)
Text: as §1

ULK2 = ULK2 (Homo sapiens (Human), UniProt Q8IYT8)
Text: as §1

WEE2 = WEE2 (Homo sapiens (Human), UniProt P0C1S8)
Text: as §1

Row | Structure (SMILES) | remaining binding at 1 µM [1] | remaining binding at 1 µM (ABL2) | remaining binding at 1 µM (AMPK-alpha1) | remaining binding at 1 µM (AMPK-alpha2) | remaining binding at 1 µM (ANKK1) | remaining binding at 1 µM (ASK2) | remaining binding at 1 µM (BTK) | remaining binding at 1 µM (CAMK1D) | remaining binding at 1 µM (CDK4) | remaining binding at 1 µM (CTK) | remaining binding at 1 µM (DCAMKL2) | remaining binding at 1 µM (EGFR(G719S)) | remaining binding at 1 µM [2] | remaining binding at 1 µM (EGFR(T790M)) | remaining binding at 1 µM (EPHA2) | remaining binding at 1 µM (EPHA5) | remaining binding at 1 µM (EPHA7) | remaining binding at 1 µM (ERN1) | remaining binding at 1 µM (FGFR3) | remaining binding at 1 µM (FLT1) | other results
1 | CCN1CCN(Cc2ccc(Nc3nc4ccc(Oc5ccnc(NC(C)=O)c5)cc4n3C)cc2C(F)(F)F)CC1 [Compound I-2] | 45% | 32% | 93% | 100% | 100% | 97% | 78% | 85% | 94% | 83% | 89% | 96% | 66% | 96% | 100% | 98% | 93% | 91% | 97% | 6.3% | remaining binding at 1 µM (HIPK2): 100%; remaining binding at 1 µM [3]: 84%; remaining binding at 1 µM (KIT(A829P)): 0%; remaining binding at 1 µM (MAP3K15): 88%; remaining binding at 1 µM (MAP3K4): 100%; remaining binding at 1 µM (MAP4K4): 100%; remaining binding at 1 µM (MEK3): 57%; remaining binding at 1 µM (MLK2): 100%; remaining binding at 1 µM (PCTK1): 84%; remaining binding at 1 µM (PDGFRA): 3.8%; remaining binding at 1 µM (PDGFRB): 0%; remaining binding at 1 µM (PFTK1): 94%; remaining binding at 1 µM (PKN2): 100%; remaining binding at 1 µM (PLK3): 81%; remaining binding at 1 µM (RIOK3): 22%; remaining binding at 1 µM (RIPK1): 88%; remaining binding at 1 µM (ROS1): 73%; remaining binding at 1 µM (SIK2): 100%; remaining binding at 1 µM (ULK2): 91%; remaining binding at 1 µM (WEE2): 100%
2 | CCN1CCN(Cc2ccc(Nc3nc4ccc(Oc5ccnc(NC(C)=O)c5)c(C)c4n3C)cc2C(F)(F)F)CC1 [Compound I-6, N-(4-(2-(4-((4-ethylpiperazin-1-yl)methyl)-3-(trifluoromethyl)phenylamino)-1,7-dimethyl-1H-benzo[d]imidazol-6-yloxy)pyridin-2-yl)acetamide] | 30% | 5.3% | 95% | 92% | 100% | 89% | 88% | 100% | 92% | 90% | 100% | 100% | 100% | 83% | 68% | 98% | 99% | 97% | 97% | 4.2% | remaining binding at 1 µM (HIPK2): 86%; remaining binding at 1 µM [3]: 72%; remaining binding at 1 µM (KIT(A829P)): 0%; remaining binding at 1 µM (MAP3K15): 60%; remaining binding at 1 µM (MAP3K4): 60%; remaining binding at 1 µM (MAP4K4): 93%; remaining binding at 1 µM (MEK3): 87%; remaining binding at 1 µM (MLK2): 95%; remaining binding at 1 µM (PCTK1): 68%; remaining binding at 1 µM (PDGFRA): 4.2%; remaining binding at 1 µM (PDGFRB): 0.05%; remaining binding at 1 µM (PFTK1): 61%; remaining binding at 1 µM (PKN2): 93%; remaining binding at 1 µM (PLK3): 93%; remaining binding at 1 µM (RIOK3): 100%; remaining binding at 1 µM (RIPK1): 96%; remaining binding at 1 µM (ROS1): 43%; remaining binding at 1 µM (SIK2): 97%; remaining binding at 1 µM (ULK2): 100%; remaining binding at 1 µM (WEE2): 100%
